Patent publication US20100240537A1, “Substituted 6-(alkylbenzylamino)purine derivatives for use as cytokinin receptor antagonists and preparations containing these derivatives” (priority 2007, published 2010)
pEC50: −log10 of the molar value.

Legend:
[1] = system: osteosarcoma cell line HOS; test: Calcein AM cytotoxicity assay, HOS; assay type: cell-based, human; settings: Homo sapiens, 72 hours
Text: (§1) Absence of toxic effects against mammalian (especially human) cell lines in a wide concentration range is one of the requirements on compounds intended for use in agriculture. Because toxic compounds negatively influence metabolic processes in cells, many standard cytotoxicity assays are based on measurement of metabolisation rate of various artificial substrates. Resulting product is then quantified e.g. by means of spectrometry. The assays can be easily modified for use in 96-well plates. For evaluation of cytotoxic effect of the novel substituted 6-(alkylbenzylamino)purine derivatives of this invention, a microtiter assay based on quantification of metabolisation of Calcein AM was used. The assay is widely used in drug screening programs and in chemosensitivity testing. In live cells, Calcein AM is enzymatically hydrolysed and accumulation of resulting calcein is manifested by green fluorescence.
(§2) The cells were maintained in Nunc/Corning 80 cm^2 plastic tissue culture flasks and cultured in cell culture medium (DMEM with 5 g/l glucose, 2 mM glutamine, 100 U/ml penicillin, 100 μg/ml streptomycin, 10% fetal calf serum and sodium bicarbonate).
(§3) The cell suspensions were prepared and diluted according to the particular cell type and the expected target cell density (10^4 cells per well based on cell growth characteristics) and pippetted (80 μl) into 96-well plates. Inoculates were allowed a pre-incubation period of 24 hours at 37° C., 100% humidity and 5% CO2 for stabilisation. Tested compounds were added in total volume of 20 μl of water at time zero. Usually, test compound was evaluated at six 3-fold dilutions. In routine testing, the highest concentration tested was 100 μM, the eventual changes depended on physico-chemical characteristics of the respective compound. All drug concentrations were tested in triplicates. Incubations of cells with the test compounds lasted for 72 hours at 37° C., in 5% CO2 atmosphere and 100% humidity. At the end of incubation period Calcein AM (Molecular Probes) in PBS was added into final concentration of 1 μg/ml. After another 1 hour of incubation fluorescence (FD) was measured with the Labsystem FIA Reader Fluoroscan Ascent (UK). Growth inhibition (GI) was estimated using the following equitation: GI=(mean FDdrug exposed wells−mean FDblank)/(mean FDcontrol wells−mean FDblank)×100%.

[2] = system: Arabidopsis seedlings (wild-type, receptor double mutants); test: Primary root length of Arabidopsis seedlings; assay type: in vivo; settings: 1 μM
Protocol: FIG. 5 Effect of compound 8 on primary root length of Arabidopsis seedlings. Increase in the length of the primary roots observed in ahk2 ahk3 double mutant seedlings (6 DAG) grown on medium containing 1 μM compound 8.
However, when 1 μM compound 8 was applied to the growth media of ahk2 ahk3 double mutants, significant increase (about 15%) in the length of the primary roots was observed compared to untreated control (FIG. 5).

CRE1/AHK4 = molecular target: T1, CRE1/AHK4 (Arabidopsis thaliana, UniProt Q9C5U0); test: Activation of cytokinin receptor CRE1/AHK4 in E. coli KMI001 (β-galactosidase reporter); assay type: cell-based; settings: for EC50 CRE1/AHK4 (activation of cytokinin receptor): E. coli KMI001 pIN-III-AHK4, 17 h incubation, n.i. means without interaction
T1 construct: expressed in transfected cells; host or cells: Escherichia coli KMI001, plasmid pIN-III-AHK4
T1 sequence (Q9C5U0 whole entry): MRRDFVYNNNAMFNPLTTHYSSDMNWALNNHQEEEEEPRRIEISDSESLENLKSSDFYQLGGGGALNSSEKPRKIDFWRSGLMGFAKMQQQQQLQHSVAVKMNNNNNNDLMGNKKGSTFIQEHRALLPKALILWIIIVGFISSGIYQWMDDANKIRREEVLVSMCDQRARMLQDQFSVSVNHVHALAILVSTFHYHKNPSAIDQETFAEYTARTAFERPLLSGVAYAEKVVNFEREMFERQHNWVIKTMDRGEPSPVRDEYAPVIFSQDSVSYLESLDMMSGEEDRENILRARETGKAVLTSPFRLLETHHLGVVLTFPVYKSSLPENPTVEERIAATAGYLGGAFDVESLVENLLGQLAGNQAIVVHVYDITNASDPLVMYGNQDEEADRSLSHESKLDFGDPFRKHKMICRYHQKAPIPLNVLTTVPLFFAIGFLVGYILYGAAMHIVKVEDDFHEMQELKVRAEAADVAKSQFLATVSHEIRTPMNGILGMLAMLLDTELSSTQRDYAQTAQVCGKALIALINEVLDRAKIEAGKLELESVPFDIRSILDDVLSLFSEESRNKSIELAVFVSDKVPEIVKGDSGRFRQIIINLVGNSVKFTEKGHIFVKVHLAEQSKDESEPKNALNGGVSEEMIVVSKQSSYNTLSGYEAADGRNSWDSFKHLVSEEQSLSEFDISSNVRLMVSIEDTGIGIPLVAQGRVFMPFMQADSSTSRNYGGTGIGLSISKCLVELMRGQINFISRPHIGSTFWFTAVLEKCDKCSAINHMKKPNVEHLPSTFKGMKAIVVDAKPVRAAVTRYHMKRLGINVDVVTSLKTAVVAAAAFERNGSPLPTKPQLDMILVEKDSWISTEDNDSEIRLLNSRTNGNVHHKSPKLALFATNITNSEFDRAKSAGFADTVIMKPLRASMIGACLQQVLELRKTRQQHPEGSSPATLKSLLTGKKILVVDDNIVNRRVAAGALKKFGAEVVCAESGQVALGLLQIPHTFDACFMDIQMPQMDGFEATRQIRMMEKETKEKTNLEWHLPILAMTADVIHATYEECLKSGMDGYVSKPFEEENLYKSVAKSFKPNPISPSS
Protocol: Escherichia coli strains KMI001 harbouring the plasmid pIN-III-AHK4 or pSTV28-AHK3 were grown overnight at 25° C. in M9 media enriched with 0.1% casamino acids to OD600˜1. The preculture was diluted 1:600 in 1 ml M9 medium containing 0.1% casamino acids and 1 μl stock solution of either the tested compound (10^−7 M−5×10^−5 M) or solvent control (DMSO, ethanol, methanol) were added. The cultures were further grown at 25° C. in microtiter plate, 200 μl per well. […] The cultures were centrifuged and 50 μl aliquots of the supernatant were transferred to microtiter plate containing 2 μl 50 mM 4-methyl umbelliferyl galactoside which was subsequently incubated for 1 h at 37° C. The reaction was stopped by adding 100 μl 0.2 M Na2CO3. Fluorescence was measured using a Fluoroscan Ascent (Labsystems, Finland) at the excitation and emission wavelengths of 365 and 460 nm, respectively. The OD600 of remaining culture was determined and β-galactosidase activity was calculated as nmol 4-methylumbelliferone×OD600^−1×h^−1.
The EC50 value, the compound concentration activating the receptor to 50%, was calculated from the obtained dose response curves. The compound functioning as cytokinin antagonists should not activate cytokinin signalling pathway. The values shown in Table 2 are means of three replicates and the entire test was repeated at least twice.

[3] = system: cytokinin-dependent tobacco callus Nicotiana tabacum L. cv. Wisconsin 38; test: Cytokinin-dependent tobacco callus bioassay; assay type: cell-based; settings: for activity (%) [10^−6 mol · l^−1 BA = 100%]: at concentration with highest activity, n.a. means inactive; for concentration with highest activity: callus fresh weight after four weeks
Protocol: Stimulatory effect of newly prepared derivatives was tested using cytokinin-dependent tobacco callus. The cytokinin-dependent tobacco callus Nicotiana tabacum L. cv. Wisconsin 38 was maintained at 25° C. in darkness on modified MS medium, containing per 1 liter: 4 μmol of nicotinic acid, 2.4 μmol of pyridoxine hydrochloride, 1.2 μmol of thiamine, 26.6 μmol of glycine, 1.37 μmol of glutamine, 1.8 μmol of myo-inositol, 30 g of sucrose, 8 g of agar, 5.37 μmol of NAA and 0.5 μmol of the compound tested. Subcultivation was carried out every three weeks. Fourteen days before the bioassay, the callus tissue was transferred to the media without 6-benzylaminopurine. The biological activity was determined from the increase of the fresh callus weight after four weeks of cultivation. Five replicates were prepared for each concentration of the compound tested and the entire test was repeated twice. […] The compounds to be tested were dissolved in dimethylsulfoxide (DMSO) and the solution brought up to 10^−3M with distilled water. This stock solution was further diluted with the respective media used for the biotest to a concentration ranging from 10^−8M to 10^−4M.
From the obtained data, the concentration with the highest activity was selected for each compound tested. Relative activity of the compound at this concentration was calculated (Table 3). The activity obtained for 10^−6 M of the control substance 6-benzylaminopurine was postulated as 100% biological activity. […]

[4] = system: breast carcinoma cell line MCF-7; test: Calcein AM cytotoxicity assay, MCF-7; assay type: cell-based, human; settings: Homo sapiens, MCF7, 72 hours
Text: as §1, §2, §3

melanoma cell line G-361 = test: Calcein AM cytotoxicity assay, G-361; assay type: cell-based, human; settings: Homo sapiens, G-361, 72 hours
Text: as §1, §2, §3

[5] = system: A. thaliana wild-type and double receptor mutant seedlings; test: Lateral root formation of Arabidopsis seedlings; assay type: in vivo, Arabidopsis thaliana; settings: 1 and 5 nM BA alone, MS medium
Protocol: (A) Number of lateral roots formed by wild-type Arabidopsis seedlings (11 DAG)—from left: DMSO control, formation in the presence of cytokinin BA, or compound 8, and antagonism when both compounds were added. (B) Increase in number of lateral roots found with WT and double-receptor mutant seedlings grown on medium containing compound 8.
Cytokinins are known as negative regulators of root growth and development. We grew A. thaliana wild-type and double receptor mutant seedlings with decreased perception of cytokinins on MS medium containing either 1 and 5 nM cytokinin BA to confirm the cytokinin inhibitory effect on initiation of lateral roots, or 1 and 10 nM compound 8, or combination of these substances in concentrations indicated in FIG. 4A.

Row | Compound | GI50 [1] [µM] | increase in the length of the primary roots compared to untreated control ([2]; ahk2 ahk3 double mutants, 6 DAG) | EC50 CRE1/AHK4 (activation of cytokinin receptor) (CRE1/AHK4) | activity (%) [10^−6 mol · l^−1 BA = 100%] [3] | concentration with highest activity [3] | GI50 [4] [µM] | GI50 (melanoma cell line G-361) [µM] | elongation of the primary root, wild-type seedlings ([2]; wild-type) | pEC50 (CRE1/AHK4) | formation of lateral roots [5]
1 | Cc1cccc(CNc2ncnc3nc[nH]c23)c1O [Compound 8, 6-(2-hydroxy-3-methylbenzylamino)purine] | > 50 | about 15% | n.i. | 2 (±2) % | 10^−4 mol.l^−1 | > 50 | > 50 | – | – | –
2 | c1ccc(CNc2ncnc3nc[nH]c23)cc1 [6-(benzylamino)purine] | > 100 | – | – | 100% | 10^−6 mol.l^−1 | > 100 | > 100 | almost completely inhibited | 4.71 | inhibited formation of lateral roots
3 | Cc1ccc(O)c(CNc2ncnc3nc[nH]c23)c1 [Compound 10, 6-(2-hydroxy-5-methylbenzylamino)purine] | > 100 | – | n.i. | 35 (±8) % | 10^−4 mol.l^−1 | > 100 | > 100 | – | – | –
